# Assay results taken from US20240417374A1, “SMALL MOLECULE ANTAGONIST TO PACAP RECEPTOR AND USES THEREOF” (The University of Vermont and State Agricultural College, priority 2021, published 2024).
# “And” between values parts separate entries of the source, which are not always exact repeats. Identical values can stand only once.
# Tests used:
# PAC1 receptor [1] = biological target: T1, PAC1 receptor (Homo sapiens, UniProt P41586); test: Inhibition of 20 nM PACAP-stimulated ERK activation in stable PAC1 receptor HEK cells (Western blot); assay type: cell-based; design: expressed in transfected cells; details: for efficacy and potency in blocking PACAP/PAC1 receptor-stimulated ERK activation, in words: stable human HEK PAC1 receptor cell line, FIGS. 1 and 2
# T1 sequence (P41586 21-468): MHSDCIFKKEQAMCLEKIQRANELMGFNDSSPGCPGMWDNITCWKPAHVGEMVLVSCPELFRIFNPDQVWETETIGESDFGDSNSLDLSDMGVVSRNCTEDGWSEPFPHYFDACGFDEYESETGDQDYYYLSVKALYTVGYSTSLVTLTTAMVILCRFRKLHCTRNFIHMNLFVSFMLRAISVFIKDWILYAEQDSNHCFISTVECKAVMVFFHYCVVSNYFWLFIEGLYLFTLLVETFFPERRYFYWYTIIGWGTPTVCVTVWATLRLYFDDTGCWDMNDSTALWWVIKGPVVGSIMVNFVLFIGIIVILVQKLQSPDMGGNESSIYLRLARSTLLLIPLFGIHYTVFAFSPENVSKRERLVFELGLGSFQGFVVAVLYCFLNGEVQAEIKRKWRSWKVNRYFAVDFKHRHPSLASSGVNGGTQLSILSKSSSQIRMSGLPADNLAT
# PAC1 receptor [2] = biological target: T1, PAC1 receptor; design: expressed in transfected cells; details: earlier work, WO/2020/168068; cited from earlier work
# PAC1 receptor [3] = biological target: T1, PAC1 receptor; design: expressed in transfected cells; details: earlier work, WO/2020/168068; cited from earlier work; remark: listed apart in the source
# [4] = tested on: PACAP-induced anxiety-related behaviors; details: earlier work, WO/2020/168068; cited from earlier work
# PAC1 receptor [5] = biological target: T1, PAC1 receptor; design: expressed in transfected cells; details: earlier work, WO/2020/168068; cited from earlier work; remark: listed apart in the source
# PAC1 receptor [6] = biological target: T1, PAC1 receptor; test: PAC1 receptor-stimulated adenylyl cyclase cAMP activation; assay type: cell-based
# PAC1 receptor [7] = biological target: T1, PAC1 receptor; test: PACAP-induced calcium flux in HEK PAC1R stable cell lines; assay type: cell-based; design: expressed in transfected cells; details: 20 nM PACAP, FIG. 3A, read-out: calculated IC50, attenuation of PACAP-induced calcium flux
# rats = test: Elevated plus maze after bilateral BNST infusion, PACAP-induced anxiety-like responses; assay type: in vivo, rat; details: FIG. 3B
# Experimental: FIG. 3 depicts that PAC1 receptor antagonist RJB-145 blocks PACAP-induced signaling and anxiety-like behavioral responses. […] 20 μM RJB-145 blocked PACAP-stimulated ERK activation nearly 75%. Data represent mean +/− SEM; n=3−4 wells/group. […] Anxiety ridden rats avoid the open arms of the maze and prefer traveling into the closed arms. […] Data represent mean +/− SEM; n=8-10 animals/group; **, statistically different from vehicle, RJB145 and PACAP+RJB145 at p<0.01.
# [8] = 20 nM PACAP, PAC1 receptor HEK cells, FIG. 2, read-out: apparent IC50, inhibition of PACAP-stimulated ERK activation
SMILES,IC50 (PAC1 receptor [1]; [8]),PAC1 receptor endosomal ERK signaling (PAC1 receptor [2]),combination with GCGR antagonist MK-0893 to inhibit PACAP/PAC1 receptor mediated ERK activation (PAC1 receptor [2]),PAC1 receptor internalization (PAC1 receptor [3]),blocking PACAP-induced anxiety-related behaviors in vivo [4],PACAP-stimulated PAC1 receptor plasma membrane calcium signaling (PAC1 receptor [5]),"efficacy and potency in blocking PACAP/PAC1 receptor-stimulated ERK activation, in words (PAC1 receptor [1])","IC50 (PAC1 receptor [1]; 20 nM PACAP, HEK PAC1R stable cell lines, FIG. 3A, read-out: calculated IC50, attenuation of PACAP-induced ERK activation) [µM]","block of PACAP-stimulated ERK activation (PAC1 receptor [1]; 20 μM compound, FIG. 3A) [%]","blocking PACAP/PAC1 receptor stimulated ERK activation (Western blot) (PAC1 receptor [1]; 25 μM pretreatment, 20 nM PACAP, FIG. 1)",effect on PAC1 receptor-stimulated adenylyl cyclase cAMP activation (PAC1 receptor [6]),IC50 (PAC1 receptor [7]) [µM],"behavioral effect on elevated plus maze, compound infused alone (rats; 20 μM/0.5 μL bilaterally into BNST of rats, 5 min per trial)",antagonism of PACAP-induced anxiety-like responses (open arm time) on elevated plus maze (rats; PACAP+RJB-145 infused bilaterally into BNST of rats)
O=C(N/N=C/c1cccc2c1ccn2Cc1cc(F)cc(F)c1)c1ccc(O)c(Cl)c1 [JF-214],5 to 8 µM,blocked,acted synergistically,blocked,demonstrated efficacy,blocked,–,–,–,–,–,–,–,–
O=C(Nc1ccc(S(=O)(=O)Nc2ccccc2)cc1)c1cc2ccccc2[nH]1 [RJB-88],~25 µM,–,–,–,–,–,appeared less potent,–,–,–,–,–,–,–
O=C(Nc1ccc(S(=O)(=O)Nc2cc(F)cc(F)c2)cc1)c1cc2ccccc2[nH]1 [RJB-145],~10 µM and 10 µM,–,–,–,–,–,shows efficacy and potency,9,~75,demonstrate efficacy,without significant effects,8.5,no behavioral effects compared to vehicle,completely antagonize the PACAP-induced anxiety-like responses to control vehicle levels
